Data published in patent US4686229A, “1,4-dihydropyridines” (Bayer Aktiengesellschaft, priority 1984, dated 1987).

System: synthesis of PGI2
Assay: Prostacyclin stimulation in whole blood (collagen-induced PGI2 formation, 6-keto-PGF1 alpha by radioimmunoassay)
Type: cell-based
From the text: The 1,4-dihydropyridines to be used according to the invention also stimulate the synthesis of PGI2. In contrast to thromboxane, which has a vasoconstricting action and initiates platelet aggregation, PGI^2 has a vasodilating action and inhibits platelet aggregation.
The formation of PGI2 can be induced in whole blood by collagen. The endoperoxides formed in platelets are probably converted into PGI2 by […]. The stable end product of the PGI2 conversion, 6-keto-PGF1 α, is determined radioimmunologically.

CC1=C(C(=O)OCCCc2cccnc2)C(c2ccc(CO)cc2)C(C(=O)OCCCc2cccnc2)=C(C)N1 [Example 1, Di-3-(pyrid-3-yl)-propyl 1,4-dihydro-4-(4-hydroxymethylphenyl)-2,6-dimethylpyridine-3,5-dicarboxylate]
Stimulation (%) (prostacyclin stimulation): 158%

CC1=C(C(=O)OCCCc2cccnc2)CC(C(=O)OCCCc2cccnc2)=C(C)N1 [Example 4, Di-3-(pyrid-3-yl)-propyl 1,4-dihydro-2,6-dimethylpyridine-3,5-dicarboxylate]
Stimulation (%) (prostacyclin stimulation): ~ 50%

COC(=O)C1C(C(=O)OCCCc2cccnc2)=C(C)NC(C)=C1C(=O)OCCCc1cccnc1 [Example 5, 4-Methyl 3,5-di-3-(pyrid-3-yl)-propyl 1,4-dihydro-2,6-dimethyl-pyridine-3,4,5-tricarboxylate]
Stimulation (%) (prostacyclin stimulation): 100%

CC1=C(C(=O)OCCCc2cccnc2)C(c2ccc(C(=O)NCc3cccnc3)cc2)C(C(=O)OCCCc2cccnc2)=C(C)N1 [Example 10, Di-3-(pyrid-3-yl)-propyl 1,4-dihydro-2,6-dimethyl-4-[4-N-(pyrid-3-ylmethyl)-carbamoylphenyl]-pyridine-3,5-dicarboxylate]
Stimulation (%) (prostacyclin stimulation): ~ 50%

CC1=C(C(=O)OCCCc2cccnc2)C(c2ccc(C(=O)NCc3ccco3)cc2)C(C(=O)OCCCc2cccnc2)=C(C)N1 [Example 11, Di-3-(pyrid-3-yl)-propyl 4-[4-N-(2-furylmethyl)-carbamoylphenyl]-1,4-dihydro-2,6-dimethyl-pyridine-3,5-dicarboxylate]
Stimulation (%) (prostacyclin stimulation): ~ 100%
